# Measurements reported in US20120171123A1, “USES AND COMPOSITIONS FOR TREATMENT OF RHEUMATOID ARTHRITIS” (priority 2006, published 2012).
# Legend:
# adult patients with RA = assay: Study 1: HAQ change by CRP category; assay type: in vivo, human
# Experimental: 407 patients with active RA enrolled in the 2 study arms. Of these patients, 299 (73.5%) patients completed the study until Week 52 and were evaluated.
# Patients were grouped into three cohorts based on baseline CRP concentrations: low (<1 mg/dL); intermediate (1-4 mg/dL); and high (>4 mg/dL). Analyses were further conducted in two categories of patients according to their change in CRP concentrations at Week 12: those with a ≧20% decrease in CRP from baseline; or those with a <20% decrease in CRP from baseline. The following efficacy and radiographic measures were analyzed at Week 52 in the three baseline CRP categories and in the two Week 12 change in CRP categories: DAS28, ACR 20/50/70, Health assessment questionnaire (HAQ), and Total Sharp score (TSS).
# patients with active RA = assay: Low-field MRI follow-up of finger joint inflammation (OMERACT-based scores, ESR, DAS28), Study A subset; assay type: in vivo, human
# Experimental: The method included the following. […] Proximal interphalangeal and metacarpophalangeal joints of the dominant hands of these patients were examined by 0.2-Tesla MRI (C-Scan, Esaote, Italy). Clinical examinations and MRI were performed at baseline and during therapy for a mean period of 86 days (range: 42-126 days). The used sequences were coronal T1-weighted spin-echo; coronal short-tau inversion-recovery gradient-echo; and T1-weighted, 3D gradient-echo before and after administration of Gd-DTPA (0.2 mmol/kg body weight). Erythrocyte sedimentation rate (ESR) and Disease Activity Score 28 (DAS28) were measured at all time points. MRI was evaluated according to an Outcome Measures in Arthritis Clinical Trials or OMERACT-based semiquantitative scoring system. Scores were calculated for erosions (0-5 scale, maximum of 40), synovitis (0-3 scale, maximum of 24), and tenosynovitis (0-3 scale, maximum of 12).
# [1] = test system: patients with long-standing RA; assay: Study 4: DAS28, clinical remission and sustained remission; assay type: in vivo, human
# Text: DAS28 represents disease activity, taking into consideration the TJC 28, SJC 28, CRP, and patient general health (based on VAS of 100 mm) (see Prevoo et al. (1995) Arthritis Rheum 38:44-48 and Van Gestel et al. (1999) J Rheumatol 26:705-711, each of which is incorporated by reference herein). DAS28 scores greater than or equal to 5.1 represent severe activity disease activity, less than 5.1 to 3.2 indicate moderate disease activity, less than 3.2 to 2.6 indicate low disease activity, and scores below 2.6 represent remission. At the end of the fourth year, the median DAS28 score was 2.7 (low disease activity). […] The largest increase in percentage of patients in clinical remission was seen between months 0-6, where an increase in the percentage of patients in remission went from 0% at month 0 to about 27% at month 6.
# The rates of sustained remission and time to remission were consistent across durations of the disease. Remission rates were defined as greater than or equal to 6 months by baseline disease duration. Rates of sustained remission and time to remission are described below in Table 16.
# Remission rates were defined as greater than or equal to 6 months by baseline disease duration.
# Efficacy outcomes were evaluated as observed data: DAS28; ACR 20/50/70; Tender Joint Count (TJC); Swollen Joint Count (SJC); and HAQ Disability Index. Baseline demographics and disease characteristics were similar in both Study 4 and Study 5 consistent with moderate to severe RA, as shown below in Table 64: […]
# [2] = test system: patients with moderate to severe rheumatoid arthritis; assay: Study C: EULAR response; assay type: in vivo, human; details: 12 weeks
# Experimental: The Canadian Adalimumab Clinical Trial (Study C) was an open-label, multi-center, Phase IIIb study conducted in Canada. […] Efficacy and safety were assessed at baseline, 4, 8, and 12 weeks. Efficacy assessments included tender joint count (TJC 0-28), swollen joint count (SJC 0-28), Disease Activity Score 28 (DAS28), Health Assessment Questionnaire (HAQ), and EULAR response. This was a preliminary analysis of 236 patients. The sample size for each outcome variable is based on the data available at the time of the analysis. The data from this preliminary analysis were compared with the Week 12 data from Study A (N=2008).
# [3] = test system: MTX-naïve adult patients with active, early RA (<3 years); details: in vivo
# Text: Study J was a 2-year randomized controlled trial in patients with early RA (disease duration<3 years). Participants in these clinical trials and in other phase Mb studies, were routinely evaluated for safety. Reports of serious adverse events (SAE) were tabulated using MedDRA coding by events per 100-patient-years (E/100PY). SAE rates were compared with respect to disease duration between patients with early (<3 yrs) and long-standing RA.
compound,measurement,setting,value
"CN(Cc1cnc2nc(N)nc(N)c2n1)c1ccc(C(=O)N[C@@H](CCC(=O)O)C(=O)O)cc1 [mtx alone, methotrexate]",mean change in HAQ,"adult patients with RA; week 52, <20% decrease in CRP at week 12",−0.29
same,HAQ mean change,"adult patients with RA; week 52, baseline CRP 1-4 mg/dL",−0.4
same,HAQ mean change,"adult patients with RA; week 52, baseline CRP <1 mg/dL",−0.4
same,HAQ mean change,"adult patients with RA; week 52, baseline CRP >4 mg/dL",−0.3
same,mean change in HAQ,"adult patients with RA; week 52, ≧20% decrease in CRP at week 12",−0.48
"adalimumab: human anti-TNF mAb (HUMIRA, Abbott Laboratories), described in U.S. Pat. No. 6,090,382 as D2E7",mean ESR,patients with active RA; after therapy (33.0 before),16.2 mm/hr
same,mean DAS28,patients with active RA; after therapy (baseline 6.1),3.8
same,median tenosynovitis MRI score (max 12),patients with active RA; during therapy (baseline 3),1.5
same,median erosion MRI score (max 40),"patients with active RA; during therapy (baseline 6.5), not significant",4.5
same,median synovitis MRI score (max 24),"patients with active RA; during therapy, mean 86 days (baseline 11), n=16",9
same,"DAS28, % change of mean clinical improvement from baseline",[1]; 6 months of exposure,39%
same,"DAS28, % change of mean clinical improvement from baseline",[1]; 12 months,44%
same,"DAS28, % change of mean clinical improvement from baseline",[1]; 24 months,45%
same,"DAS28, % change of mean clinical improvement from baseline",[1]; 36 months,47%
same,"DAS28, % change of mean clinical improvement from baseline",[1]; 48 months,50%
same,patients in clinical remission (DAS28<2.6),[1]; 48 months,49%
same,patients achieving clinical remission (DAS28<2.6),[1]; Year 5,Over 40%
same,Months in remission (mean),[1]; baseline DAS28 < 5.1,27 months
same,Months until remission (mean),[1]; baseline DAS28 < 5.1,8 months
same,patients with sustained remission (≧6 months),[1]; baseline DAS28 < 5.1,"(n = 105, 50%*)"
same,Months in remission (mean),[1]; baseline DAS28 ≧ 5.1,23 months
same,Months until remission (mean),[1]; baseline DAS28 ≧ 5.1,11 months
same,patients with sustained remission (≧6 months),[1]; baseline DAS28 ≧ 5.1,"(n = 140, 22%**)"
same,% of visits with ACR70 during remission,[1]; disease duration >2 years,64%
same,% of visits with CRP <10 mg/L during remission,[1]; disease duration >2 years,95%
same,% of visits with SJC = 0 during remission,[1]; disease duration >2 years,54%
same,% of visits with TJC = 0 during remission,[1]; disease duration >2 years,70%
same,Months in remission (mean),[1]; disease duration >2 years,25 months
same,Months until remission (mean),[1]; disease duration >2 years,10 months
same,patients with sustained remission (≧6 months),[1]; disease duration at entry >2 years,"(n = 209, 29%*)"
same,patients with sustained remission (≧6 months),[1]; disease duration at entry ≦2 years,"(n = 36, 31%*)"
same,% of visits with ACR70 during remission,[1]; disease duration ≦2 years,71%
same,% of visits with CRP <10 mg/L during remission,[1]; disease duration ≦2 years,94%
same,% of visits with SJC = 0 during remission,[1]; disease duration ≦2 years,64%
same,% of visits with TJC = 0 during remission,[1]; disease duration ≦2 years,77%
same,Months in remission (mean),[1]; disease duration ≦2 years,25 months
same,Months until remission (mean),[1]; disease duration ≦2 years,10 months
same,median DAS28 score,[1]; end of fourth year,2.7
same,patients in clinical remission (DAS28<2.6),[1]; month 6,about 27%
same,Good EULAR response,[2],18%
same,Moderate EULAR response,[2],79%
same,"EULAR response, % good","[2]; Study C, preliminary analysis",18 (121) %
same,"EULAR response, % moderate","[2]; Study C, preliminary analysis",78 (121) %
same,All infectious AE,[3],110 Events/100-PY
same,Demyelination,[3],0.0 Events/100-PY
same,Lymphoma,[3],0.0 Events/100-PY
same,Malignancies,[3],0.9 Events/100-PY
same,Pancytopenia,[3],0.0 Events/100-PY
same,Serious AE,[3],21.1 Events/100-PY
same,Serious Infectious AE,[3],0.7 Events/100-PY
